Data as given in patent US20260062422A1 (Halda Therapeutics OpCo, Inc., priority 2022, published 2026).

Columns and labels:
[1] = system: T-Rex 293 cell line SC3 cells having increased expression of androgen receptor protein due to exposure to doxycycline; test: Cellular growth inhibition, T-Rex 293 SC3 cells with doxycycline (androgen receptor induced), CellTiter-Glo; format: cell-based; settings: T-Rex 293 SC3 cells with 10 ng/mL doxycycline (increased androgen receptor expression)
Procedure, shortened: (§1)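 Growth inhibition was compared in a T-Rex 293 clone with and without doxycycline (10 ng/mL)-driven androgen receptor overexpression. Compounds were applied for 72 h in hormone-depleted serum, and GI50 came from four-parameter curves of CellTiter-Glo signal.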

[2] = system: T-Rex 293 cell line SC3 cells lacking increased expression of androgen receptor protein; test: Cellular growth inhibition, T-Rex 293 SC3 cells without doxycycline, CellTiter-Glo; format: cell-based; settings: T-Rex 293 SC3 cells not exposed to doxycycline, CellTiter-Glo 2.0
Procedure, shortened: as §1

VCaP cells = test: Cellular growth inhibition assay for VCaP cells, CellTiter-Glo; format: cell-based, human; settings: Homo sapiens, VCaP, 72 h, 72 hours treatment, CellTiter-Glo 2.0
Procedure, shortened: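 GI50 values come from four-parameter curve fits of luminescence data normalized to a zero baseline. Compound, in medium with 0.5% DMSO, was added one day after plating and left for 72 h before CellTiter-Glo 2.0 addition.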

T47D cells = test: Cellular growth inhibition assay for T47D cells, CellTiter-Glo; format: cell-based, human; settings: Homo sapiens, T47D, 72 h, 72 hours treatment, CellTiter-Glo 2.0 cell viability
Procedure, shortened: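 Luminescence from CellTiter-Glo 2.0 after 72 h of compound exposure gives the viability signal. Cells grew in insulin-supplemented (0.2 units/mL) DMEM with 10% FBS and were treated one day after seeding at 0.5% DMSO. GI50 values come from four-parameter nonlinear regression.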

GI50 (VCaP cells) [nM] | GI50 (T47D cells) [nM] | SMILES | GI50 ([1]; 72 h) [nM] | GI50 ([2]; 72 h) [nM] | GI50 ([1]; 72 hours) [nM] | GI50 ([2]; 72 hours) [nM]
500 to 1500 | 500 to 1500 | Cc1sc2c(c1C)C(c1ccc(O[C@H]3CO[C@]4(CCCN(c5ncc(C(=O)N[C@H]6C(C)(C)[C@H](Oc7ccc(C#N)c(Cl)c7)C6(C)C)cn5)C4)C3)cc1)=N[C@@H](Cc1ncco1)c1nnc(C)n1-2 [Compound I-192] | < 500 | 500 to 1500 |  | 
500 to 1500 | < 500 | Cc1sc2c(c1C)C(c1ccc(O[C@H]3C[C@@]4(CCCN(c5ncc(C(=O)N[C@H]6C(C)(C)[C@H](Oc7ccc(C#N)c(Cl)c7)C6(C)C)cn5)C4)C3)cc1)=N[C@@H](Cc1ncco1)c1nnc(C)n1-2 [Compound I-193] | < 500 | 500 to 1500 |  | 
< 500 | 500 to 1500 | Cc1sc2c(c1C)C(c1ccc(O[C@H]3C[C@]4(CCCN(c5ncc(C(=O)N[C@H]6C(C)(C)[C@H](Oc7ccc(C#N)c(Cl)c7)C6(C)C)cn5)C4)C3)cc1)=N[C@@H](Cc1ncco1)c1nnc(C)n1-2 [Compound I-194] | < 500 | < 500 |  | 
< 500 | < 500 | Cc1sc2c(c1C)C(c1ccc(O[C@H]3COC4(CCN(c5ncc(C(=O)N[C@H]6C(C)(C)[C@H](Oc7ccc(C#N)c(Cl)c7)C6(C)C)cn5)C4)C3)cc1)=N[C@@H](Cc1ncco1)c1nnc(C)n1-2 (stereo partly drawn) [Compound I-195] | < 500 | < 500 |  | 
500 to 1500 | < 500 | Cc1sc2c(c1C)C(c1ccc(OC3CC4(CCN(c5ccc(C(=O)N[C@H]6C(C)(C)[C@H](Oc7ccc(C#N)c(Cl)c7)C6(C)C)cc5)CC4)C3)cc1)=N[C@@H](Cc1ncco1)c1nnc(C)n1-2 [Compound I-196] | < 500 | > 3000 |  | 
< 500 | < 500 | Cc1sc2c(c1C)C(c1ccc(OC3CC4(C3)CN(c3ncc(C(=O)N[C@H]5C(C)(C)[C@H](Oc6ccc(C#N)c(Cl)c6)C5(C)C)cn3)C4)cc1)=N[C@H](Cc1ncco1)c1nnc(C)n1-2 [Compound I-199] | < 500 | < 500 |  | 
< 500 | 500 to 1500 | Cc1sc2c(c1C)C(c1ccc(O[C@H]3CCC4(CCCN(c5ncc(C(=O)N[C@H]6C(C)(C)[C@H](Oc7ccc(C#N)c(Cl)c7)C6(C)C)cn5)C4)C3)cc1)=N[C@@H](Cc1ncco1)c1nnc(C)n1-2 (stereo partly drawn) [Compound I-200] | < 500 | 500 to 1500 |  | 
< 500 | < 500 | Cc1sc2c(c1C)C(c1ccc(O[C@@H]3CC[C@@]4(CCCN(c5ncc(C(=O)N[C@H]6C(C)(C)[C@H](Oc7ccc(C#N)c(Cl)c7)C6(C)C)cn5)C4)C3)cc1)=N[C@@H](Cc1ncco1)c1nnc(C)n1-2 [Compound I-201] | < 500 | > 3000 |  | 
< 500 | 500 to 1500 | Cc1sc2c(c1C)C(c1ccc(O[C@@H]3CC[C@]4(CCCN(c5ncc(C(=O)N[C@H]6C(C)(C)[C@H](Oc7ccc(C#N)c(Cl)c7)C6(C)C)cn5)C4)C3)cc1)=N[C@@H](Cc1ncco1)c1nnc(C)n1-2 [Compound I-202] | < 500 | > 3000 |  | 
< 500 | < 500 | Cc1sc2c(c1C)C(c1ccc(OC[C@H]3CC[C@@]4(CCCN(c5ncc(C(=O)N[C@H]6C(C)(C)[C@H](Oc7ccc(C#N)c(Cl)c7)C6(C)C)cn5)C4)C3)cc1)=N[C@@H](Cc1ncco1)c1nnc(C)n1-2 [Compound I-203] | < 500 | > 3000 |  | 
500 to 1500 | < 500 | Cc1sc2c(c1C)C(c1ccc(OC[C@H]3CC[C@]4(CCCN(c5ncc(C(=O)N[C@H]6C(C)(C)[C@H](Oc7ccc(C#N)c(Cl)c7)C6(C)C)cn5)C4)C3)cc1)=N[C@@H](Cc1ncco1)c1nnc(C)n1-2 [Compound I-204] | < 500 | > 3000 |  | 
< 500 | 500 to 1500 | Cc1sc2c(c1C)C(c1ccc(Oc3ncc(C(=O)N[C@H]4C(C)(C)[C@H](Oc5ccc(C#N)c(Cl)c5)C4(C)C)cn3)cc1)=N[C@@H](Cc1ncco1)c1nnc(C)n1-2 [Compound I-205] | < 500 | 500 to 1500 |  | 
< 500 | < 500 | Cc1sc2c(c1C)C(c1ccc(N3CC(OC4CCN(c5ncc(C(=O)N[C@H]6C(C)(C)[C@H](Oc7ccc(C#N)c(Cl)c7)C6(C)C)cn5)CC4)C3)cc1)=N[C@@H](Cc1ncco1)c1nnc(C)n1-2 [Compound I-206, N-[3-(3-chloro-4-cyano-phenoxy)-2,2,4,4-tetramethyl-cyclobutyl]-2-[4-[1-[4-[(9S)-4,5,13-trimethyl-9-(oxazol-2-ylmethyl)-3-thia-1,8,11,12-tetrazatricyclo[8.3.0.02,6]trideca-2(6),4,7,10,12-pentaen-7-yl]phenyl]azetidin-3-yl]oxy-1-piperidyl]pyrimidine-5-carboxamide] | < 500 | < 500 |  | 
500 to 1500 | 500 to 1500 | Cc1sc2c(c1C)C(c1ccc(N3CC4(CCN(c5ncc(C(=O)N[C@H]6C(C)(C)[C@H](Oc7ccc(C#N)c(Cl)c7)C6(C)C)cn5)CC4)C3)cc1)=NC(Cc1ncco1)c1nnc(C)n1-2 (stereo partly drawn) [Compound I-207] |  |  | < 500 | > 3000
> 3000 | > 3000 | Cc1sc2c(c1C)C(c1ccc(N3CCC(CC4CCN(c5ncc(C(=O)N[C@H]6C(C)(C)[C@H](Oc7ccc(C#N)c(Cl)c7)C6(C)C)cn5)CC4)CC3)cc1)=N[C@@H](Cc1ncco1)c1nnc(C)n1-2 [Compound I-210] | 500 to 1500 | > 3000 |  | 
< 500 | < 500 | Cc1sc2c(c1C)C(c1ccc(N3CCC(CC4CCN(c5ncc(C(=O)N[C@H]6C(C)(C)[C@H](Oc7ccc(C#N)c(Cl)c7)C6(C)C)cn5)CC4)CC3)cc1)=N[C@H](Cc1ncco1)c1nnc(C)n1-2 [Compound I-211] | < 500 | 500 to 1500 |  | 
< 500 | < 500 | Cc1sc2c(c1C)C(c1ccc(CCCOC3CCN(c4ncc(C(=O)N[C@H]5C(C)(C)[C@H](Oc6ccc(C#N)c(Cl)c6)C5(C)C)cn4)CC3)cc1)=N[C@@H](Cc1ccccn1)c1nnc(C)n1-2 [Compound I-212, N-[3-(3-chloro-4-cyano-phenoxy)-2,2,4,4-tetramethyl-cyclobutyl]-2-[4-[3-[4-[(9S)-4,5,13-trimethyl-9-(2-pyridylmethyl)-3-thia-1,8,11,12-tetrazatricyclo[8.3.0.02,6]trideca-2(6),4,7,10,12-pentaen-7-yl]phenyl]propoxy]-1-piperidyl]pyrimidine-5-carboxamide] | < 500 | > 3000 |  | 
< 500 | < 500 | Cc1sc2c(c1C)C(c1ccc(CCCOC3CCN(c4ncc(C(=O)N[C@H]5C(C)(C)[C@H](Oc6ccc(C#N)c(Cl)c6)C5(C)C)cn4)CC3)cc1)=N[C@H](Cc1ccccn1)c1nnc(C)n1-2 [Compound I-213] | < 500 | > 3000 |  | 
< 500 | < 500 | Cc1sc2c(c1C)C(c1ccc(CCCOC3CCN(c4ncc(C(=O)N[C@H]5C(C)(C)[C@H](Oc6ccc(C#N)c(Cl)c6)C5(C)C)cn4)CC3)cc1)=N[C@@H](Cc1cccnc1)c1nnc(C)n1-2 [Compound I-214] | < 500 | < 500 |  | 
< 500 | < 500 | Cc1sc2c(c1C)C(c1ccc(CCCOC3CCN(c4ncc(C(=O)N[C@H]5C(C)(C)[C@H](Oc6ccc(C#N)c(Cl)c6)C5(C)C)cn4)CC3)cc1)=N[C@@H](Cc1ccncc1)c1nnc(C)n1-2 [Compound I-215] | < 500 | < 500 |  | 
< 500 | > 3000 | Cc1sc2c(c1C)C(c1ccc(CCCOC3CCN(c4ncc(C(=O)N[C@H]5C(C)(C)[C@H](Oc6ccc(C#N)c(Cl)c6)C5(C)C)cn4)CC3)cc1)=N[C@H](Cc1ccncc1)c1nnc(C)n1-2 [Compound I-216] | < 500 | > 3000 |  | 
< 500 | < 500 | Cc1sc2c(c1C)C(c1ccc(CCCOC3CCN(c4ncc(C(=O)N[C@H]5C(C)(C)[C@H](Oc6ccc(C#N)c(Cl)c6)C5(C)C)cn4)CC3)cc1)=N[C@H](Cc1cccnc1)c1nnc(C)n1-2 [Compound I-217] | < 500 | > 3000 |  | 
< 500 | < 500 | Cc1sc2c(c1C)C(c1ccc(OC3CC4(CCN(c5ncc(C(=O)N[C@H]6C(C)(C)[C@H](Oc7ccc(C#N)c(Cl)c7)C6(C)C)cn5)CC4)C3)cc1)=N[C@@H](Cc1nnn(C)n1)c1nnc(C)n1-2 [Compound I-218, N-[3-(3-chloro-4-cyano-phenoxy)-2,2,4,4-tetramethyl-cyclobutyl]-2-[2-[4-[(9S)-4,5,13-trimethyl-9-[(2-methyltetrazol-5-yl)methyl]-3-thia-1,8,11,12-tetrazatricyclo[8.3.0.02,6]trideca-2(6),4,7,10,12-pentaen-7-yl]phenoxy]-7-azaspiro[3.5]nonan-7-yl]pyrimidine-5-carboxamide] | < 500 | > 3000 |  | 
> 3000 | > 3000 | Cc1sc2c(c1C)C(c1ccc(OC3CC4(CCN(c5ncc(C(=O)N[C@H]6C(C)(C)[C@H](Oc7ccc(C#N)c(Cl)c7)C6(C)C)cn5)CC4)C3)cc1)=N[C@H](Cc1nnn(C)n1)c1nnc(C)n1-2 [Compound I-219] | < 500 | > 3000 |  | 
